Measurements from ChEMBL document CHEMBL1134089, “Arylsulphonyl hydroxamic acids: potent and selective matrix metalloproteinase inhibitors” (Bioorg Med Chem Lett, 2001).

How the values were obtained:
Stromelysin-1 = Stromelysin-1 (Homo sapiens, UniProt P08254); experiment: Inhibition of Matrix metalloprotease-3
Interstitial collagenase = biological target: T1, Interstitial collagenase (Homo sapiens, UniProt P03956); experiment: Inhibition of Matrix metalloprotease-1
T1 sequence (P03956 whole entry): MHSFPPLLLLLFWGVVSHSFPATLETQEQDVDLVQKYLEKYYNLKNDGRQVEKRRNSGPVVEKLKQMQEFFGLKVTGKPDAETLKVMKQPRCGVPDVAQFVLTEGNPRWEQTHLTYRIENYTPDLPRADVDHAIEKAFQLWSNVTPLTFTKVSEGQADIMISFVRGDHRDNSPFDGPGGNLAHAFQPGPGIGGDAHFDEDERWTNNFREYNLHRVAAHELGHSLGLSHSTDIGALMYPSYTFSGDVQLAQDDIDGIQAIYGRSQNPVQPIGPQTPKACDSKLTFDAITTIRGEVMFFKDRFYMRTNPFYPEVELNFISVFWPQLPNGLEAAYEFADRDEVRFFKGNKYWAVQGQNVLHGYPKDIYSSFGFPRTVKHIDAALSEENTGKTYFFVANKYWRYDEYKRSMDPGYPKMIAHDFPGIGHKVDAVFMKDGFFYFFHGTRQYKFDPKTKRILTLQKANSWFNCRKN

[1] = biological target: Matrix metalloproteinase-9 (Homo sapiens, UniProt P14780); experiment: Inhibition of Matrix metalloprotease-9
Chain of Matrix metalloproteinase-9 (P14780 whole entry): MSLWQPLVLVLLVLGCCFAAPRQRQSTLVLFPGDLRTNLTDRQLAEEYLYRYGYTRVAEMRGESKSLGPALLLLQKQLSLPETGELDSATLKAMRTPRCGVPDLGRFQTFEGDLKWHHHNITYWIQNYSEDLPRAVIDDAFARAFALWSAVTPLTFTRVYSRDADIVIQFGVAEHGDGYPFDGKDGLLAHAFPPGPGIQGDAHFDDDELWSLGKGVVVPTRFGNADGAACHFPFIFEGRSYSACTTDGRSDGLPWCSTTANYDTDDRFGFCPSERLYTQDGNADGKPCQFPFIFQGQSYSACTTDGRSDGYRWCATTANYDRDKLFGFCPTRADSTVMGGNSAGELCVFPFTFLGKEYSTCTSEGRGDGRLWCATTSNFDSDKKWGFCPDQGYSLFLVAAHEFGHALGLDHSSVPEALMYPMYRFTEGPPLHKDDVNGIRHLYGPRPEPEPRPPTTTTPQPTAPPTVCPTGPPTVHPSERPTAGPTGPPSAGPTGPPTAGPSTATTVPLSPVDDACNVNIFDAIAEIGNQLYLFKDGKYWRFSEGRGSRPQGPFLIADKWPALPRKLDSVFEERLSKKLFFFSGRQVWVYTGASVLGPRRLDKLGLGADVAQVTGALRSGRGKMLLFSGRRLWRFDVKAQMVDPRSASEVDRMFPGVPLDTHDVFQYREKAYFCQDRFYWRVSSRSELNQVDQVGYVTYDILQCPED

[2] = biological target: 72 kDa type IV collagenase (Homo sapiens, UniProt P08253); experiment: Inhibition of Matrix metalloprotease-2
Chain of 72 kDa type IV collagenase (P08253 whole entry): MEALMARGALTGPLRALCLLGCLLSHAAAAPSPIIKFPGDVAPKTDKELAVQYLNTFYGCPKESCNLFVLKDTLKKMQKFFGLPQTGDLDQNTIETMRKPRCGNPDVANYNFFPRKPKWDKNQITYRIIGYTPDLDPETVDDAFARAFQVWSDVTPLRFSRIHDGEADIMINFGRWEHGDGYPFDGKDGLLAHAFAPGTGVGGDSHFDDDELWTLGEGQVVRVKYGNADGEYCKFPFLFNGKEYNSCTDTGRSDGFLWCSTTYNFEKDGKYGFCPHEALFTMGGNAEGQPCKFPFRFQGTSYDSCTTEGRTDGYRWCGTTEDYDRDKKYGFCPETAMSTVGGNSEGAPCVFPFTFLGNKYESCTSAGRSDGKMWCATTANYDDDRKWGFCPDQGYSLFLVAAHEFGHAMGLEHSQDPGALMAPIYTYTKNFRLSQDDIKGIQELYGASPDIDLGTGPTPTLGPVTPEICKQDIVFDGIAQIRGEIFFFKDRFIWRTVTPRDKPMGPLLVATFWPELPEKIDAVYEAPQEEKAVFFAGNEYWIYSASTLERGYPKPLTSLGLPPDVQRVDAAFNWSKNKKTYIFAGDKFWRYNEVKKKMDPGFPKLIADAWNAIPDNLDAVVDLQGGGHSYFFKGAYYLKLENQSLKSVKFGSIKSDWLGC

Neutrophil collagenase = Neutrophil collagenase (Homo sapiens, UniProt P22894); experiment: Inhibition of Matrix metalloprotease-8
Chain of Neutrophil collagenase (P22894 whole entry): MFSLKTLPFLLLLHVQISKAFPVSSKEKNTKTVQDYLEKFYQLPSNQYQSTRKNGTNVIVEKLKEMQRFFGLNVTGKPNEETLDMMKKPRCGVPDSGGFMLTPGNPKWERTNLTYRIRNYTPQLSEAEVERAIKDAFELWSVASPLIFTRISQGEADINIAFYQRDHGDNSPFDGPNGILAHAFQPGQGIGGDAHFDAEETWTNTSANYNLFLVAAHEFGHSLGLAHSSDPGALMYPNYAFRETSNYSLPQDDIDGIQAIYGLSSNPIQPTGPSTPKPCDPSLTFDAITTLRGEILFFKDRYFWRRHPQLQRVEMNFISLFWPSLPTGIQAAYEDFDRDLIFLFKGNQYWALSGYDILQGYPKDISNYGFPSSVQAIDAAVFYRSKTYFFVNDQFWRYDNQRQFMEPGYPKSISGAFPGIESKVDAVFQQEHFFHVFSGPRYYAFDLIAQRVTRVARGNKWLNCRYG

[3] = Inhibitory concentration required against shedding of TNF-alpha from stimulated PBMCs; assay type: functional
Mus musculus = experiment: Percent inhibition against B16-F10 mouse melanoma tested in vivo at 30 mg/kg; assay type: functional
[4] = Inhibitory concentration required against shedding of TNF RII from stimulated PBMCs; assay type: functional
[5] = Inhibitory concentration required against shedding of IL6-R from stimulated PBMCs; assay type: functional
[6] = (§1) Inhibitory concentration required against shedding of L-Selectin from stimulated PBMCs; assay type: functional, Homo sapiens
Rattus norvegicus [7] = experiment: Percent inhibition against adjuvant arthritis in rats tested in vivo at 10 mg/kg; assay type: functional
[8] = Inhibitory concentration required against shedding of IL-1 RII from stimulated PBMCs; assay type: functional
Rattus norvegicus [9] = experiment: Percent inhibition against adjuvant arthritis in rats tested in vivo at 3 mg/kg; assay type: functional
Rattus norvegicus [10] = experiment: Plasma level evaluated in the rat after oral dosing of 10 mg/kg; assay type: ADME, organism-based; parameters: dose 10 mg/kg, route oral; settings: in vivo
[11] = as §1; assay type: functional

Chain of Stromelysin-1 (P08254 whole entry): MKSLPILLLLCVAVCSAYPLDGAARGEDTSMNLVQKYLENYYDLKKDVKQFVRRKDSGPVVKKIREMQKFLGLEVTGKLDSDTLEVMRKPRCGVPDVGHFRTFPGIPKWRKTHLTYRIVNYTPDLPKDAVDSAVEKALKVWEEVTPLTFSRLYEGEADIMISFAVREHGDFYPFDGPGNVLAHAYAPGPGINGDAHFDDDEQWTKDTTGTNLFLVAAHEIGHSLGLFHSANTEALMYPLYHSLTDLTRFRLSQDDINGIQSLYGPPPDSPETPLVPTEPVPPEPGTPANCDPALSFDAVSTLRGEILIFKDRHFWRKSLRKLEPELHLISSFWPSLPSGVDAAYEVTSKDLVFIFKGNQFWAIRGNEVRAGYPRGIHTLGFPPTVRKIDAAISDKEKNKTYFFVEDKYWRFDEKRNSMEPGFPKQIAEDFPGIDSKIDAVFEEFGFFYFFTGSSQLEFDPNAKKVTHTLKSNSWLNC

| Structure (SMILES) | IC50 (Stromelysin-1) [nM] | IC50 (Interstitial collagenase) [nM] | IC50 [1] [nM] | IC50 [2] [nM] | IC50 (Neutrophil collagenase) [nM] | IC50 ([3]; Homo sapiens) [nM] | inhibition in vivo at 30 mg/kg (Mus musculus) [%] | IC50 ([4]; Homo sapiens) [nM] | IC50 ([5]; Homo sapiens) [nM] | IC50 [6] [nM] | inhibition in vivo at 10 mg/kg (Rattus norvegicus [7]) [%] | IC50 ([8]; Homo sapiens) [nM] | inhibition in vivo at 3 mg/kg (Rattus norvegicus [9]) [%] | Plasma level (Rattus norvegicus [10]) [ng/mL] | IC50 [3] [nM] | IC50 [4] [nM] | IC50 [5] [nM] | IC50 [11] [nM] | IC50 [8] [nM] |
| --- | --- | --- | --- | --- | --- | --- | --- | --- | --- | --- | --- | --- | --- | --- | --- | --- | --- | --- | --- |
| O=C(c1ccc(S(=O)(=O)CC(CCCc2ccccc2)C(=O)NO)cc1)c1cc[n+]([O-])cc1 (centres undefined) | 350 | 20000 | 150 | 50 | 80 |  |  |  |  |  |  |  |  |  |  |  |  |  |  |
| O=C(NO)C(CCCc1ccccc1)CS(=O)(=O)c1ccc(C(O)c2ccccc2)cc1 (centres undefined) | 2500 | 25000 | 2500 | 1700 | 3000 |  |  |  |  |  |  |  |  |  |  |  |  |  |  |
| O=C(c1ccccc1)c1ccc(S(=O)(=O)CC(CCCc2ccccc2)C(=O)NO)cc1 (centres undefined) | 100 |  |  |  | 15 | > 100000 | 40 | > 100000 | > 100000 | > 100000 | 40 | > 100000 |  |  |  |  |  |  |  |
| O=C(NO)C(CCCc1ccccc1)CS(=O)(=O)c1ccc(Cc2ccccc2)cc1 (centres undefined) | > 2000 | > 30000 | 150 | 200 | 300 |  |  |  |  |  |  |  |  |  |  |  |  |  |  |
| O=C(c1ccccc1)c1ccc(S(=O)(=O)CC(CCCc2ccccc2)C(=O)O)cc1 (centres undefined) | 1200 | 20000 | 400 | 800 | 300 |  |  |  |  |  |  |  |  |  |  |  |  |  |  |
| Cl.O=C(c1ccncc1)c1ccc(S(=O)(=O)CC(CCCc2ccccc2)C(=O)NO)cc1 (centres undefined) | 100 | 10000 | 15 | 3 | 3 | > 100000 | 80 | > 100000 | > 100000 | > 100000 |  | 37000 | 50 | 300 |  |  |  |  |  |
| CNC(=O)[C@@H](NC(=O)C(CC(C)C)C(O)C(=O)NO)C(C)(C)C (single isomer, unassigned) |  |  |  |  |  |  | 40 |  |  |  | 50 |  |  |  | 2000 | 1000 | 10000 | 5000 | 10000 |
